Tests used:
N-terminal cysteine GST = target: T1, N-terminal cysteine GST (Schistosoma japonicum, UniProt P08515); assay: In vivo time-course labelling of N-terminal cysteine GST in live bacterial cells; format: cell-based, E. coli; details: cells expressing labelled GST, FIG. 15
T1 construct: Ssp DnaB intein tag (pTWIN2) (N, cleaved yes); expressed in transfected cells; host or cells: E. coli ER2566 transformed with pTWIN2-GST
Experimental: To generate in vivo proteins having N-terminal cysteine residues, bacterial cells expressing N-terminal cysteine-containing proteins EGFP and GST fused to the C-terminus of the Ssp DnaB mini-intein were induced to undergo self-cleavage, releasing the N-terminal cysteine protein, then incubated with the probes over a period of 24 h.
Briefly, the above bacterial constructs were transformed into the E. coli expression strain ER2566 (NEB) and grown in 100 mg/L ampicillin containing LB media at 37° C. […]
For the time-course labelling experiments, a small sample of cells was removed at each time interval, quenched with 0.01M cysteine, and lysed by boiling with SDS loading buffer. The resulting sample was analyzed directly on a 12% SDS-PAGE. Fluorescence labelling was visualized with a Typhoon™ fluorescence scanner (Amersham Biosciences). Biotinylated proteins were detected by western blotting (with anti-biotin-HRP) with the Enhanced ChemiLuminescent™ kit (Amersham).
Results are shown in FIG. 13, where i=cells labelled with probe 2 (FL), ii=cells labelled with probe 3 (TMR) and iii=cells labelled with probe 5 (biotin) (lanes 1-8 are samples taken at 0 min, 10 min, 30 min, 1 h, 3 h, 6 h, 12 h and 24 h, respectively). The results of the 24 hour time-course are quantified in FIG. 14 (FL=♦, TMR=▪ and BIOTIN=▴).

[1] = tested on: N-terminal cysteine ECFP-NLS; assay: Fluorescence microscopy / FRET of HEK293 cells expressing N-terminal cysteine ECFP-NLS; format: cell-based; details: HEK293 cells transfected with ECFP-NLS
From the text: Intein-fused EGFP and ECFP (enhanced cyan fluorescent protein) were constructed, in which an extra N-terminal cysteine was introduced into both EGFP and ECFP, as described above. To facilitate evaluation of the labelling, as well as to assess whether the strategy targets proteins expressed in subcellular compartments of mammalian cells (e.g. nucleus), a nuclear localization sequence (NLS) was fused to ECFP, generating ECFP-NLS. The intein-fused EGFP gene was amplified from the above bacterial construct, while the ECFP gene with a nuclear localization sequence (ECFP-NLS) was amplified from pECFP-Nuc (Clontech, USA) and cloned first into the pTWIN1 vector. Using the GATEWAY™ cloning system (Invitrogen, USA), the intein-fused genes were cloned into the donor vector pDONR201, followed by recombination of the cloned genes into a mammalian expression vector pT-Rex-DEST30 (Invitrogen). All constructs were sequence verified. […]
Fluorescence microscopy experiments were also performed using HEK293 mammalian cells. […] The fluorescence images were obtained using the excitation and emission channels described above for the bacterial experiments.

N-terminal cysteine EGFP = N-terminal cysteine EGFP (Aequorea victoria, UniProt P42212, F64L/H231L/S65T); details: labelled bacterial cells expressing EGFP, excitation 470±20 nm, emission 605±30 nm
Experimental: The FRET channel for CFP/TMR pair was recorded using filters with an excitation: 436±20 nm and emission: 620±20 nm (Chroma). The FRET channel for GFP/TMR pair was using filters with excitation=470±20 nm and emission=605±30 nm (Zeiss).

[2] = tested on: control proteins without N-terminal cysteine (GST, Protease, Lipase, Papain, Pepsin); assay: In vitro labelling of control proteins without an N-terminal cysteine (site-specificity); format: biochemical; details: 5 control proteins with no or only internal cysteines, 60 min incubation
Experimental: Probes were prepared as 200 μM stocks (25× in DMSO) and stored at −20° C. In a typical labelling reaction, 6 μl of each probe (final concentration: 8 μM) was added to 50 μl of pure protein (1 mg/ml) dissolved in 1×PBS (final concentration of protein: ˜[…]), with or without 1 mM DTT, and the reaction was topped up with 1×PBS to a final volume of 150 μl. DTT was added to experiments, where live cells were used, to reduce background labelling. At specific time intervals, 15 μl of the reaction was withdrawn and quenched by addition of 1.7 μl of 100 mM cysteine to the reaction mixture (final concentration of cysteine: 10 mM), followed by denaturation with SDS-PAGE loading dye at 95° C. for 3 min. The loading dye also serves to hydrolyze the diacetate groups on probes 2 and 4, thereby releasing the fluorescence.
Probe 3 was used in the labelling reaction, and the reaction was performed as mentioned above with 60 min incubation time. All proteins are available from Sigma (St Louis, USA). (Lane 1. GST (cat #: G-4385); Lane 2. Protease (P-5380); Lane 3. Lipase (L-9031); Lane 4. Papain (P-4762); Lane 5. Pepsin (P-6887); Lane 6. BioRad Precision Plus Protein Standards).

HEK293 cells = assay: Cell toxicity in HEK293 cells during labelling; format: cell-based; details: 100 μM, 24 h
Experimental: Briefly, HEK293 cells grown in DMEM+10% FBS media at 37° C. with 5% CO2 were transiently transfected with pT-Rex-DEST30-intein-EGFP-NLS or pT-Rex-DEST30-intein-ECFP-NLS using Polyfect™ (Qiagen, USA). See FIGS. 12ii. and iii., respectively, for in vivo intein cleavage for the expressed EGFP and ECFP proteins expressed in HEK293 cells. After 36 hours of protein expression, cells were washed in 1×PBS and cystine-free DMEM (Sigma) was added. The biotin-thioester probe, probe 5, was added to a final concentration of 100 μM (10-100 μM also worked) and cells were incubated for another 24 h. […] Cells were harvested by centrifugation at 1000 rpm for 10 min and resuspended in 1×PBS. Washings were repeated at least 3 times, and cells were lysed in PBS using glass beads. Magnetic streptavidin beads (Promega, USA) were used to pull-down all biotinylated proteins in the cell lysate. Beads were washed twice in 1× PBS, then boiled in 1×SDS loading buffer and loaded onto a 12% SDS-PAGE. Western blotting was used to assess biotinylated proteins, as described above.

T1 sequence (P08515 whole entry, added parts left off): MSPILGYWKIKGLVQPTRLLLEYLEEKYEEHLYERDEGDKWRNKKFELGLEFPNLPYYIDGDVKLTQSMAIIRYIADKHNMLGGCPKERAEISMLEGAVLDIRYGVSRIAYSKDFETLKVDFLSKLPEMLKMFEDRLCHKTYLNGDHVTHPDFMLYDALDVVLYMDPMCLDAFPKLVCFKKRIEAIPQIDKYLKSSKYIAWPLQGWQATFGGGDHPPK

O=C(CNC(=O)c1ccc(C2=C3C=CC(O)C=C3Oc3cc(O)ccc32)c(C(=O)O)c1)SCc1ccccc1 (stereo not drawn) [Probe 2, N-benzylsulfanylcarbonylmethyl-6-(3,6-dihydroxy-3H-xanthen-9-yl)-isophthalamic acid]
specificity of labelling inside the live cell (SDS-PAGE) (N-terminal cysteine GST): only the desired protein was labelled specifically, as well as covalently, inside the live cell, with little or no background observed

CN(C)c1ccc2c(c1)Oc1cc(N(C)C)ccc1C21OC(=O)c2cc(C(=O)NCC(=O)SCc3ccccc3)ccc21 [Probe 3, amino thioacetic acid S-benzyl ester of 5-carboxy-tetramethylrhodamine]
localization of labelling ([1]; 100 μM probe, 24 h): the majority of the labelling occurred inside the nucleus
FRET signal ([1]; excitation 436±10 nm, emission 620±30 nm): clear FRET signal in the nucleus of the labelled cells
FRET signal (N-terminal cysteine EGFP): a clear FRET signal was observed
site-specificity of labelling [2]: labelling occurred ONLY with proteins possessing an N-terminal cysteine

O=C(CCCCC1SCC2NC(=O)NC21)NCC(=O)SCc1ccccc1 (stereo not drawn) [Probe 5, [5-(2-oxo-hexahydro-thieno[3,4-d]imidazol-6-yl)-pentanoylamino]-thioacetic acid S-benzyl ester]
cell toxicity (HEK293 cells): No cell toxicity was observed

— US7449558B2, “Site-specific labelling of proteins” (National University of Singapore, priority 2003, dated 2008)
